# According to patent US6892140B1, “Immunogenic cancer peptides and uses thereof” (Enteron, Inc., priority 2000, dated 2005):
# Entries after “also recorded” stand apart in the source; their conditions may differ. Ends that are not written are not given here.
# Test system: serum IgG antibodies from patients with squamous cell carcinoma and from controls
# Experiment: Immunoassay 2: serum IgG specific for biotinylated peptide antigens, squamous cell carcinoma patients vs persons not known to have cancer
# Type: binding, human
# Details: 45 squamous cell carcinoma sera
# Protocol: Using immunoassay 2 (see Materials and Methods) the following results were obtained.
# Immunoassay Method 2: Used to Detect Serum IgA, IgD, IgE, IgG, and IgM Antibodies Specific for Individual Peptide Antigens
# NeutrAvidin^a conjugated paper disc, 6 mm.
# Serum diluent: 10 mM sodium phosphate, pH 7.20, with 150 MM sodium chloride, and 0.20 mg/mL sodium azide.
# NeutrAvidin^a coated white microtiter plate, stored in 10 mM Tris-HCl, pH 7.50, containing 600 mM sodium chloride and 0.2 mg/mL thimerosal.
# Plate blocking solution: 10 mM sodium phosphate, pH 7.20, containing 150 mM sodium chloride, 100 mg/mL Triton X-405, and 0.2 mg/mL thimerosal.
# Plate wash buffer: 20 mM Tris chloride, pH 7.4, containing 150 mM sodium chloride, 0.5 mg/mL Triton X-405 and 0.2 mg/mL thimerosal.
# (§1) Peptide solution: 0.06 μg/mL peptide dissolved in 20 mM Tris chloride, pH 7.4, containing 600 mM sodium chloride, 30 mg/mL polyethylene glycol 4000, 1 mM ethylenediaminetetraacetic acid, 1 mM ethylene glycol-bis(§-aminoethyl ether)N,N,N′,N′-tetraacetic acid, 0.5 mg/mL Triton X405 and 0.2 mg/mL thimerosal.
# as §1, with “Control peptide” for “Peptide”, “0.013” for “0.06”, “μg/mL control” for “μg/mL”, “X-405” for “X405”
# Conjugate solution: 0.100 μg/mL alkaline phosphatase conjugated polyclonal goat anti human IgG dissolved in 20 mM Tris-HCl, pH 7.40, with 600 mM sodium chloride, 30.0 mg/mL PEG-4000, 3.0 mg/mL BSA, 0.5 mg/mL Triton X-405 and 0.20 mg/mL thimerosal.
# Substrate solution: 25.2 μg/mL 4-methylumbelliferyl phosphate dissolved in 180 mM 2-amino-2-methyl-1-propanol, pH 9.50, containing 123 μM magnesium chloride.
# Serum preparation: • 1. Add 100 μL serum to 15 NeutrAvidin^a coated paper discs in a suitably sized test tube. • 2. Incubate with gentle mixing at ambient temperature for 16-20 hours. • 3. Add 7.900 mL of serum diluent and mix gently for 30 minutes. • 4. Vortex the tube gently to completely release the serum from the discs. • 5. Remove the treated serum from the discs and transfer it to a suitable storage tube. • 6. Store the treated serum at 4 EC.
# Assay procedure: • 1. Two days before assay, aspirate the storage solution from the NeutrAvidin^a coated white microtiter plate and add 200 μL plate blocking solution to each well. • 2. Cover the plate and incubate at ambient temperature for 16-20 hours. • 3. One day before assay. wash the blocked plate three times with plate wash buffer, approximately 275 μL per well per wash. […] Read the plate at 30 and 60 minutes in a fluorescence microtiter plate reader set at 365 nm excitation and 450 nm emission. […]
row,Substance,sera from squamous cell carcinoma patients with IgG antibody level above control mean background+2.5 SD
1,aemNgSk: TROP1 peptide with the amino acid sequence aemNgSk (AEMNGSK; not fully specified),6 of 45
2,"rNvs: EGFR peptide (portion of SEQ ID NO: 67), deglycosylated asparagine N (RNVS; also: deglycosylated asparagine)",2 of 45

# Same assay, conditions: control population
row,Substance,sera from persons not known to have cancer: IgG antibody level relative to control mean background+2.5 SD
1,aemNgSk: TROP1 peptide with the amino acid sequence aemNgSk (AEMNGSK; not fully specified),one
2,"rNvs: EGFR peptide (portion of SEQ ID NO: 67), deglycosylated asparagine N (RNVS; also: deglycosylated asparagine)",below the mean background+2.5 standard deviations; also recorded: below the mean background plus 4 standard deviations

# Test system: antibodies in sera from prostate cancer patients
# Experiment: Prostate cancer serum test of cell surface protein peptides (Table 3)
# Type: binding, human
# Design: key: +: positive or negative reactivity between peptides representing modified peptide regions of cancer cell surface protein molecules with antibodies in sera from prostate cancer patients; −: positive or negative reactivity between peptides representing modified peptide regions of cancer cell surface protein molecules with antibodies in sera from prostate cancer patients
# Details: reactivity of peptide with antibodies in sera from prostate cancer patients
# Excerpt: Table 3 third column illustrates the positive or negative reactivity between peptides representing modified peptide regions of cancer cell surface protein molecules with antibodies in sera from prostate cancer patients. The presence or absence in prostate cancer cells of the 41 tested molecules is shown as + or − in column four.
# Sixth, employing the immunoassays disclosed herein, each biotinylated peptide is screened as an antigen against sera or other relevant biological fluids containing antibodies taken from one of the following groups: cancer patients, patients with benign lesions or inflammatory conditions, and healthy subjects. Peptides can also be screened using tumor-infiltrating lymphocytes or peripheral blood-born lymphocytes from cancer patients. Candidate peptides we consider cancer-specific or cancer-associated depend on whether they fit the following definitions.
row,Substance,Prostate Cancer Serum Test Result
1,IrNes: Tested peptide of cell surface protein integrin alpha 5 (LRNES; not fully specified),−
2,crNvs: Tested peptide of cell surface protein erbB-1 (CRNVS; not fully specified),−
3,eyNts: Tested peptide of cell surface protein tgfr beta type II (EYNTS; not fully specified),+
4,"gtNkt: Tested peptide of cell surface protein CD40 (GTNKT; also: biotin label, end not given here)",+
5,trNvs: Tested peptide of cell surface protein pdgfr beta (TRNVS; not fully specified),−
6,kaNts: Tested peptide of cell surface protein integrin alpha 5 (KANTS; also: biotin label at one end),−
7,"gdNrt: Tested peptide of cell surface protein protein-tyrosine phosphatase kappa (GDNRT; also: biotin label, end not given here)",−
8,aeNct: Tested peptide of cell surface protein erbB-4 (AENCT; not fully specified),−
